Assays:
Assay in all cases: relative viability (nuclei count vs DMSO), 5 days (fraction); higher = more cells survive
[1] = system: NCI-H1915
In short: (§1)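 Relative viability equals treated-well nuclei counts divided by vehicle-well nuclei counts. Counts came from 4× images of lung cancer cell lines grown in 1536-well plates for 5 days after pin-tool dosing on the day after seeding. Dosing used one drug alone or a fixed anchor-drug dose plus five library-drug doses (not always all listed) in √10 steps, and values are medians of duplicate plates.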

[2] = system: RERF-LC-KJ
In short: as §1

[3] = system: LC-2-ad
In short: as §1

[4] = system: SW 1573
In short: as §1

[5] = system: NCI-H1355
In short: as §1

[6] = system: NCI-H2228
In short: as §1

[7] = system: A-427
In short: as §1

[8] = system: LCLC-97TM1
In short: as §1

[9] = system: LOU-NH91
In short: as §1

[10] = system: NCI-H650
In short: as §1

[11] = system: LU99A
In short: as §1

[12] = system: NCI-H520
In short: as §1

[13] = system: NCI-H460
In short: as §1

[14] = system: NCI-H838
In short: as §1

[15] = system: NCI-H1993
In short: as §1

[16] = system: EKVX
In short: as §1

[17] = system: NCI-H1793
In short: as §1

[18] = system: NCI-H23
In short: as §1

[19] = system: NCI-H1666
In short: as §1

[20] = system: NCI-H2347
In short: as §1

[21] = system: PC-3 [JPC-3]
In short: as §1

[22] = system: BEN
In short: as §1

[23] = system: NCI-H1650
In short: as §1

Compound: Cc1cnc(-c2cnc(NCCNc3ccc(C#N)cn3)nc2-c2ccc(Cl)cc2Cl)[nH]1 + COc1cccc2cc(-c3nc([C@H]4CC[C@H](C(=O)O)CC4)n4ncnc(N)c34)[nH]c12 [OSI-027] (partner 0.5 µM)
- relative viability ([1]; first compound 0.08 µM): 0.715
- relative viability ([1]; first compound 0.253 µM): 0.586
- relative viability ([1]; first compound 0.8 µM): 0.658
- relative viability ([1]; first compound 2.53 µM): 0.812
- relative viability ([2]; first compound 0.08 µM): 0.672
- relative viability ([2]; first compound 0.253 µM): 0.591
- relative viability ([2]; first compound 0.8 µM): 0.454
- relative viability ([2]; first compound 2.53 µM): 0.697
- relative viability ([3]; first compound 0.08 µM): 0.886
- relative viability ([3]; first compound 0.253 µM): 0.713
- relative viability ([3]; first compound 2.53 µM): 0.962
- relative viability ([4]; first compound 0.08 µM): 0.538
- relative viability ([4]; first compound 0.253 µM): 0.483
- relative viability ([4]; first compound 0.8 µM): 0.33
- relative viability ([4]; first compound 2.53 µM): 0.363
- relative viability ([5]; first compound 0.08 µM): 0.404
- relative viability ([5]; first compound 0.253 µM): 0.434
- relative viability ([5]; first compound 0.8 µM): 0.395
- relative viability ([5]; first compound 2.53 µM): 0.439
- relative viability ([6]; first compound 0.08 µM): 0.779
- relative viability ([6]; first compound 0.253 µM): 0.807
- relative viability ([6]; first compound 0.8 µM): 0.569
- relative viability ([6]; first compound 2.53 µM): 0.469
- relative viability ([7]; first compound 0.08 µM): 0.547
- relative viability ([7]; first compound 0.253 µM): 0.41
- relative viability ([7]; first compound 0.8 µM): 0.608
- relative viability ([7]; first compound 2.53 µM): 0.653
- relative viability ([8]; first compound 0.08 µM): 0.648
- relative viability ([8]; first compound 0.8 µM): 0.646
- relative viability ([8]; first compound 2.53 µM): 0.688
- relative viability ([9]; first compound 0.08 µM): 0.732
- relative viability ([9]; first compound 0.253 µM): 0.709
- relative viability ([9]; first compound 0.8 µM): 0.751
- relative viability ([9]; first compound 2.53 µM): 0.673
- relative viability ([10]; first compound 0.08 µM): 0.571
- relative viability ([10]; first compound 0.253 µM): 0.517
- relative viability ([10]; first compound 0.8 µM): 0.582
- relative viability ([10]; first compound 2.53 µM): 0.486
- relative viability ([11]; first compound 0.08 µM): 0.291
- relative viability ([11]; first compound 0.253 µM): 0.304
- relative viability ([11]; first compound 0.8 µM): 0.327
- relative viability ([11]; first compound 2.53 µM): 0.401
- relative viability ([12]; first compound 0.08 µM): 0.24
- relative viability ([12]; first compound 0.253 µM): 0.288
- relative viability ([12]; first compound 0.8 µM): 0.274
- relative viability ([12]; first compound 2.53 µM): 0.28
- relative viability ([13]; first compound 0.08 µM): 0.749
- relative viability ([13]; first compound 0.253 µM): 0.582
- relative viability ([13]; first compound 0.8 µM): 0.675
- relative viability ([13]; first compound 2.53 µM): 0.669
- relative viability ([14]; first compound 0.08 µM): 0.433
- relative viability ([14]; first compound 0.253 µM): 0.424
- relative viability ([14]; first compound 0.8 µM): 0.46
- relative viability ([14]; first compound 2.53 µM): 0.846
- relative viability ([15]; first compound 0.08 µM): 0.568
- relative viability ([15]; first compound 0.253 µM): 0.49
- relative viability ([15]; first compound 0.8 µM): 0.536
- relative viability ([15]; first compound 2.53 µM): 0.577
- relative viability ([16]; first compound 0.08 µM): 0.768
- relative viability ([16]; first compound 0.253 µM): 0.706
- relative viability ([16]; first compound 0.8 µM): 0.589
- relative viability ([16]; first compound 2.53 µM): 0.624
- relative viability ([17]; first compound 0.08 µM): 0.322
- relative viability ([17]; first compound 0.253 µM): 0.276
- relative viability ([17]; first compound 0.8 µM): 0.191
- relative viability ([17]; first compound 2.53 µM): 0.279
- relative viability ([18]; first compound 0.08 µM): 0.592
- relative viability ([18]; first compound 0.253 µM): 0.539
- relative viability ([18]; first compound 0.8 µM): 0.58
- relative viability ([18]; first compound 2.53 µM): 0.678
- relative viability ([19]; first compound 0.08 µM): 0.828
- relative viability ([19]; first compound 0.253 µM): 0.77
- relative viability ([19]; first compound 0.8 µM): 0.894
- relative viability ([19]; first compound 2.53 µM): 0.903
- relative viability ([20]; first compound 0.08 µM): 0.397
- relative viability ([20]; first compound 0.253 µM): 0.415
- relative viability ([20]; first compound 0.8 µM): 0.324
- relative viability ([20]; first compound 2.53 µM): 0.426
- relative viability ([21]; first compound 0.08 µM): 0.831
- relative viability ([21]; first compound 0.253 µM): 0.757
- relative viability ([21]; first compound 0.8 µM): 0.692
- relative viability ([21]; first compound 2.53 µM): 0.742
- relative viability ([22]; first compound 0.08 µM): 0.352
- relative viability ([22]; first compound 0.253 µM): 0.307
- relative viability ([22]; first compound 0.8 µM): 0.324
- relative viability ([22]; first compound 2.53 µM): 0.371
- relative viability ([23]; first compound 0.08 µM): 0.75
- relative viability ([23]; first compound 0.253 µM): 0.61
- relative viability ([23]; first compound 0.8 µM): 0.554
- relative viability ([23]; first compound 2.53 µM): 0.56

— the supplement of paper PMC10307832
